Test results taken from patent US20220089599A1, “ALKYNYL NICOTINAMIDE COMPOUNDS AS KINASE INHIBITORS” (PURDUE RESEARCH FOUNDATION, priority 2018, published 2022).
Where two headings read alike, the source gives them in different places.

Key:
K562 = assay type: cell-based; conditions: Homo sapiens
MV-4-11 = assay type: cell-based; conditions: Homo sapiens
MOLM14-F691L = assay type: cell-based; conditions: Homo sapiens
H520 = assay type: cell-based; conditions: Homo sapiens
KCL22-IR = assay type: cell-based; conditions: read-out: IC50 KCL22-IR
LC2/Ad = test: cells; conditions: Homo sapiens, LC-2-ad, read-out: IC50 LC2/Ad
KCL22 = assay type: cell-based; conditions: Homo sapiens
MOLM14 = assay type: cell-based; conditions: Homo sapiens
MOLM13-res = assay type: cell-based; conditions: read-out: IC50 MOLM13-res
MOLM14-D835Y = assay type: cell-based
c-SRC = c-SRC (Homo sapiens, UniProt P12931); test: Kinase IC50 at Reaction Biology; assay type: biochemical
Sequence of c-SRC (P12931 whole entry): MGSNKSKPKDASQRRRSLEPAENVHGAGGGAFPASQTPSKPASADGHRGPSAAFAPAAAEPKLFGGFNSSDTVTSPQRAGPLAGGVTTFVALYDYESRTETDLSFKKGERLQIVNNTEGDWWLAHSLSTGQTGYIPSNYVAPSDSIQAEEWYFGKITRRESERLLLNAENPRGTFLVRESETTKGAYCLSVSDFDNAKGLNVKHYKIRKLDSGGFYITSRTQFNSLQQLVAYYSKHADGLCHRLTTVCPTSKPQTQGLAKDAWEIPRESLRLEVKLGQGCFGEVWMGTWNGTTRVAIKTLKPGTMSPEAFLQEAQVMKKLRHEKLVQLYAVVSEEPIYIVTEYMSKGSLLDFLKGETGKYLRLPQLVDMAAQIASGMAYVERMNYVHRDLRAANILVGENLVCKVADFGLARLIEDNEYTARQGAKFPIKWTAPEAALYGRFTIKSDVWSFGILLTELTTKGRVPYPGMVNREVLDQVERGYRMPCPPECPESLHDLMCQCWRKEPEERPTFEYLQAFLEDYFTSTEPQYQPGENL

[1] = cell activities of other nicotinamide compounds, K562, read-out: IC50 K562
[2] = cell activities of other nicotinamide compounds, MOLM-14 (ITD, F691L), read-out: IC50 MOLM-14 (ITD, F691L)
[3] = cell activities of other nicotinamide compounds, KCL22-IR
[4] = KCL-22, cell activities of other nicotinamide compounds, KCL22, read-out: IC50 KCL22
[5] = cell activities of other nicotinamide compounds, MOLM-14, read-out: IC50 MOLM-14
[6] = Homo sapiens, cell activities of other nicotinamide compounds, MOLM-14 (ITD, D85Y), read-out: IC50 MOLM-14 (ITD, D85Y)

| SMILES | IC50 (K562; [1]) [nM] | IC50 (MOLM14-F691L; [2]) [nM] | IC50 (KCL22-IR; [3]) [nM] | IC50 (KCL22; [4]) [nM] | IC50 (MOLM14; [5]) [nM] | IC50 (MOLM14-D835Y; [6]) [nM] | also measured |
| --- | --- | --- | --- | --- | --- | --- | --- |
| Cc1ccc(C(=O)Nc2ccc(CN3CCN(C)CC3)c(C(F)(F)F)c2)cc1C#Cc1cnc2cccnn12 [Ponatinib, reference compound] |  |  |  |  |  |  | IC50 (K562; K562, read-out: IC50 K562): 0.6 nM; IC50 (MV-4-11; MV4-11, read-out: IC50 MV-4-11): 0.09 nM; IC50 (MOLM14-F691L; MOLM-14, read-out: IC50 MOLM14-F691L): 6.8 nM; IC50 (H520; NCI-H520, read-out: IC50 H520): 128 nM; IC50 (KCL22-IR): 0.66 nM; IC50 (LC2/Ad): 35.1 nM; IC50 (KCL22; KCL-22, read-out: IC50 KCL22): 0.14 nM; IC50 (MOLM14; MOLM-14, read-out: IC50 MOLM14): 0.45 nM; IC50 (MOLM13-res): 24.1 nM; IC50 (MOLM14-D835Y; read-out: IC50 MOLM14-D835Y): 52.6 nM |
| CN1CCN(Cc2ccc(NC(=O)c3cncc(C#Cc4cnc5ccccn45)c3)cc2C(F)(F)F)CC1 [HSL381, 5-(imidazo[1,2-a]pyridin-3-ylethynyl)-N-(4-((4-methylpiperazin-1-yl)methyl)-3-(trifluoromethyl)phenyl)nicotinamide] | 0.57 ± 0.003 | 0.55 ± 0.06 | 4.24 ± 0.05 | 0.89 ± 0.005 | 0.04 ± 0.006 | 7.12 ± 0.06 |  |
| CN1CCN(Cc2ccc(NC(=O)c3cncc(C#Cc4cncc5nccn45)c3)cc2C(F)(F)F)CC1 [HSL407, 5-(imidazo[1,2-a]pyrazin-5-ylethynyl)-N-(4-((4-methylpiperazin-1-yl)methyl)-3-(trifluoromethyl)phenyl)nicotinamide] | 1.83 ± 0.02 | 6.87 ± 0.13 | 49.7 ± 2.5 | 2.93 ± 0.04 |  | 42.9 ± 0.7 |  |
| CN1CCN(Cc2ccc(NC(=O)c3cncc(C#Cc4cnc5cccnn45)c3)cc2C(F)(F)F)CC1 [HSN748, 5-(imidazo[1,2-b]pyridazin-3-ylethynyl)-N-(4-((4-methylpiperazin-1-yl)methyl)-3-(trifluoromethyl)phenyl)nicotinamide] |  |  |  |  |  |  | IC50 (K562; growth inhibition, K562 (ABL1) cell line, read-out: IC50 K562): 0.8 nM; IC50 (MV-4-11; MV4-11, growth inhibition, MV-4-11 (FLT3) cell line, read-out: IC50 MV-4-11): 0.07 nM; IC50 (MOLM14-F691L; MOLM-14, growth inhibition, gilteritinib-resistant AML cell line Molm14 (ITD, F691L), read-out: IC50 MOLM14-F691L): 0.18 nM; IC50 (H520; NCI-H520, growth inhibition, H520 cell line, read-out: IC50 H520): 839 nM; IC50 (c-SRC; [ATP] = 100 μM, read-out: IC50 c-SRC): > 1000 nM; IC50 (c-SRC; read-out: IC50 c-Src kinase): > 1000 nM; IC50 (KCL22-IR; growth inhibition, KCL22-IR cell line): 0.23 nM; IC50 (KCL22; KCL-22, growth inhibition, KCL22 cell line, read-out: IC50 KCL22): 1.32 nM; IC50 (MOLM14; MOLM-14, growth inhibition, MOLM14 cell line, read-out: IC50 MOLM14): 0.05 nM; IC50 (MOLM13-res; growth inhibition, MOLM13-res cell line): 1.73 nM; IC50 (MOLM14-D835Y; growth inhibition, quizartinib-resistant AML cell line, read-out: IC50 MOLM14-D835Y): 0.69 nM |
| CN1CCN(Cc2ccc(NC(=O)c3cncc(C#Cc4cnc5ccnn5c4)c3)cc2C(F)(F)F)CC1 [HSL412, N-(4-((4-methylpiperazin-1-yl)methyl)-3-(trifluoromethyl)phenyl)-5-(pyrazolo[1,5-a]pyrimidin-6-ylethynyl)nicotinamide] | 28.1 ± 0.6 | 17.8 ± 1.3 |  | 28.1 ± 0.4 |  | > 100 |  |
| CN1CCN(Cc2ccc(NC(=O)c3cncc(C#Cc4cnc5cnccn45)c3)cc2C(F)(F)F)CC1 [HSL385, 5-(imidazo[1,2-a]pyrazin-3-ylethynyl)-N-(4-((4-methylpiperazin-1-yl)methyl)-3-(trifluoromethyl)phenyl)nicotinamide] | 0.94 ± 0.002 |  | 17.2 ± 0.8 | 2.62 ± 0.06 | 0.15 ± 0.007 | 28.5 ± 0.9 |  |
| CN1CCN(Cc2ccc(C(=O)Nc3cncc(C#Cc4cnc5cccnn45)c3)cc2C(F)(F)F)CC1 [HSL338, N-(5-(imidazo[1,2-b]pyridazin-3-ylethynyl)pyridin-3-yl)-4-((4-methylpiperazin-1-yl)methyl)-3-(trifluoromethyl)benzamide] | 0.45 ± 0.002 |  | 4.2 ± 0.04 | 1.4 ± 0.02 | 0.075 ± 0.0005 | 7.4 ± 0.04 |  |
| Cc1ncc(C(=O)Nc2ccc(CN3CCN(C)CC3)c(C(F)(F)F)c2)cc1C#Cc1cnc2cccnn12 [HSL420, 5-(imidazo[1,2-b]pyridazin-3-ylethynyl)-6-methyl-N-(4-((4-methylpiperazin-1-yl)methyl)-3-(trifluoromethyl)phenyl)nicotinamide] | 0.059 ± 0.002 | 0.57 ± 0.004 | 0.46 ± 0.01 | 0.06 ± 0.002 |  | 2.24 ± 0.08 |  |
| CN1CCN(Cc2ccc(NC(=O)c3cncc(C#Cc4cnc5ncccn45)c3)cc2C(F)(F)F)CC1 [HSL382, 5-(imidazo[1,2-a]pyrimidin-3-ylethynyl)-N-(4-((4-methylpiperazin-1-yl)methyl)-3-(trifluoromethyl)phenyl)nicotinamide] | > 100 | > 100 | > 100 | > 100 | 5.15 ± 0.09 | > 100 |  |
